# In PMC6669608, “Evaluation of Oxasqualenoids from the Red Alga Laurencia viridis against Acanthamoeba” (Marine Drugs, 2019):
# Where two headings read alike, the source gives them in different places.
# Legend:
# [1] = test system: Acanthamoeba castellanii Neff trophozoites; set-up: method as in PMID 30423882; settings: previous work; read-out: IC50 against Acanthamoeba castellanii Neff; cited from earlier work
# [2] = Cytotoxicity assay (alamarBlue); assay type: cell-based, murine; set-up: CC50, toxicity against murine macrophage J774A.1 (unit not given): unit not given beside the values; settings: mouse, 24 h, 37 °C, read-out: CC50, toxicity against murine macrophage J774.A1
# Protocol: (§1) The antiamoeboid activity of the compounds was evaluated against Acanthamoeba castellanii Neff (ATCC 30010) type strain from the American Type Culture Collection. This strain was axenically incubated in PYG medium (0.75% (w/v) proteose Peptone, 0.75% (w/v) Yeast extract, and 1.5% (w/v) Glucose) supplemented with 10 µg/mL gentamicin (Sigma-Aldrich, Madrid, Spain). As for the cytotoxicity assays, murine macrophages J774A.1 (ATCC TIB-67) were used, cultivated in DMEM medium (Dulbecco’s modified eagle medium, Gibco Life Technologies, California, USA) with 10% supplement of fetal bovine serum (FBS) and 10 µg/mL gentamicin at 37 °C in a 5% CO2 incubator.
# (§2) The cytotoxicity of the tested compounds was determined in vitro with murine macrophages (J774A.1). For this assay, the DMEM culture medium was changed from RPMI without phenol red (Roswell Park Memorial Institute, Thermo Fisher Scientific Inc., Waltham, MA, USA) to L-Glutamine supplemented with 10% (v/v) inactivated FBS and with 10 µg/mL gentamicin. In this assay, the macrophages were counted and seeded into a 96-well microtiter plate, adding 50 µL to each well from a stock solution of 2 × 10^5 cells/mL. Cells were then left to adhere for 15 min to the plate bottom and were checked with the inverted microscope Leica DMIL. After that, 50 µL of a serial dilution of the compounds was added to the 96-well microtiter plate. Finally, alamarBlue™ was added into each well at an amount equal to 10% of the final volume and incubated at 37 °C in the presence of CO2 at 5% for 24 h. After this period of time, as in the in vitro anti-Acanthamoeba assay, the fluorescence was determined with an EnSpire Multimode Plate Reader (PerkinElmer, Inc, Waltham, MA, USA) at a wavelength of 570/585 nm. The cytotoxicity concentration to inhibit the growth of 50% of murine macrophages (CC50) was calculated through nonlinear regression analysis with 95% confidence limits using the software Sigma Plot 12.0 (Systat Software, Inc, San Jose, CA 95110 USA). Experiments were performed three times each, allowing for standard deviation.
# [3] = test system: Acanthamoeba castellanii Neff trophozoites; assay: In vitro activity against Acanthamoeba trophozoites (alamarBlue colorimetric assay); assay type: cell-based, Acanthamoeba castellanii Neff (ATCC 30010); settings: 96 h, read-out: IC50 against Acanthamoeba castellanii Neff
# Protocol: as §1
# The in vitro activities of the different compounds of Laurencia were evaluated using a previously developed colorimetric assay based on the alamarBlue™ Cell Viability Reagent assay (Life Technologies, Barcelona, Spain). Briefly, 50 µL of 5 × 10⁴ trophozoites/mL were seeded onto a 96-well microtiter plate. After 15 min, the adherence of the cells to the plate bottom was confirmed by the use of the inverted microscope Leica DMIL (Leica, Wetzlar, Germany). Furthermore, 50 µL of serial dilutions of each compound was added to the 96-well microtiter plate. Finally, alamarBlue™ was placed into each well at 10% of the final volume and incubated at 26 °C with slight agitation. After 96 h, the fluorescence was measured with EnSpire Multimode Plate Reader (Perkin Elmer, Madrid, Spain) at a wavelength of 570/585 nm. The inhibitory concentration to inhibit the growth of 50% of the parasites (IC50) was calculated through nonlinear regression analysis with 95% confidence limits using the software Sigma Plot 12.0 (Systat Software Inc., London, UK). The experiments were performed three times each, allowing for standard deviation.
# [4] = test system: murine macrophages J774A.1; assay: Cytotoxicity assay (alamarBlue); assay type: cell-based; set-up: CC50, toxicity against murine macrophage J774A.1 (unit not given): unit not given beside the values; settings: for CC50, toxicity against murine macrophage J774A.1 (unit not given): mouse
# Protocol: as §1, §2
# [5] = test system: Acanthamoeba castellanii Neff trophozoites; assay: In vitro activity against Acanthamoeba trophozoites (alamarBlue colorimetric assay); assay type: cell-based, Acanthamoeba castellanii Neff (ATCC 30010); settings: 42.5 µM (25 µg/mL)
Compound,CC50 at 24 h ([2]; J774A.1 murine macrophages),"IC50 ([3]; trophozoites, 26 °C)",CC50 [2],further results
3α-bromojohnstane,–,–,–,IC50 [1]: 41.5 µM
"C[C@@H]1[C@H](O)[C@@H](C)/C=C/C=C/C=C/C=C/C=C/C=C/C=C/[C@H](O[C@@H]2O[C@H](C)[C@@H](O)[C@H](N)[C@@H]2O)C[C@@H]2O[C@](O)(C[C@@H](O)C[C@@H](O)[C@H](O)CC[C@@H](O)C[C@@H](O)CC(=O)O[C@H]1C)C[C@H](O)[C@H]2C(=O)O [Amphotericin B, amphotericin B, reference compound]",> 100 µM,39.6 ± 0.56 µM,–,–
"[H]/N=C(\N/C(=N/[H])NCCCCCCNC(=N)NC(=N)Nc1ccc(Cl)cc1)Nc1ccc(Cl)cc1 [Chlorhexidine, chlorhexidine, reference compound]",6.64 ± 0.35 µM,–,–,–
"CC(C)(O)[C@H]1CC[C@](C)([C@@H](O)CC[C@](C)(O)[C@H]2CC[C@H]3O[C@@H]([C@]4(C)CC[C@@H](Br)C(C)(C)O4)CC[C@]3(C)O2)O1 [Compound 2, thyrsiferol]",–,–,–,"CC50 at 24 h [2]: > 100 µM; toxicity against murine macrophages (in words) [4]: not toxic against murine macrophages; CC50, toxicity against murine macrophage J774A.1 (unit not given) ([4]; 24 h): < 50; IC50 [3]: 14 ± 1.57 µM"
"C=C(CC[C@H](O)[C@@]1(C)CC[C@@H](O)C(C)(C)O1)[C@H]1CC[C@H]2O[C@@H]([C@]3(C)CC[C@@H](Br)C(C)(C)O3)CC[C@]2(C)O1 [Compound 3, iubol]",–,5.3 ± 0.87 µM,7.72 ± 0.22 µM,inhibitory effect on the growth of A. castellanii trophozoites (microscopy) [5]: many of the treated cells were dead
"C=C(CC[C@H](O)[C@@]1(C)CC[C@](O)(C(C)(C)O)O1)[C@H]1CC[C@H]2O[C@@H]([C@]3(C)CC[C@@H](Br)C(C)(C)O3)CC[C@]2(C)O1 [Compound 4, 22-hydroxydehydrothyrsiferol]",–,17 ± 4.57 µM,> 100 µM,"toxicity against murine macrophages (in words) [4]: not toxic against murine macrophages; CC50, toxicity against murine macrophage J774A.1 (unit not given) [4]: < 50"
"C=C(C)[C@@H]1CC[C@@](C)([C@H]2CC[C@]3(C)O[C@@H](C(=C)CC[C@H](O)[C@@]4(C)CC[C@H](C(C)(C)O)O4)CC[C@H]3O2)O1 [Compound 5, 1,2-dehydropseudodehydrothyrsiferol]",> 100 µM,105 ± 1.72 µM,–,–
"CC(C)(O)[C@H]1CC[C@](C)([C@@H]2CC[C@@](C)([C@H]3CC[C@H]4O[C@@H]([C@]5(C)CC[C@@H](Br)C(C)(C)O5)CC[C@]4(C)O3)O2)O1 [Compound 6, saiyacenol A]",–,55.4 ± 6.56 µM,59.9 ± 8.5 µM,–
"CC(C)(O)[C@H]1CC[C@](C)([C@@H]2CC[C@](C)([C@H]3CC[C@H]4O[C@@H]([C@]5(C)CC[C@@H](Br)C(C)(C)O5)CC[C@]4(C)O3)O2)O1 [Compound 7, saiyacenol B]",–,77.9 ± 3.3 µM,> 100 µM,–
"CC(C)(O)[C@H]1CC[C@](C)([C@@H]2CC[C@@](CO)([C@H]3CC[C@H]4O[C@@H]([C@]5(C)CC[C@@H](Br)C(C)(C)O5)CC[C@]4(C)O3)O2)O1 [Compound 8, 28-hydroxysaiyacenol A]",–,66.2 ± 3.81 µM,> 100 µM,–
"CC(C)(O)[C@H]1CC[C@](C)([C@@H]2CC[C@](CO)([C@H]3CC[C@H]4O[C@@H]([C@]5(C)CC[C@@H](Br)C(C)(C)O5)CC[C@]4(C)O3)O2)O1 [Compound 9, 28-hydroxysaiyacenol B]",–,59.9 ± 10.1 µM,> 100 µM,–
"CC(C)(O)C1CCC(C)(C2CCC(C)(C3CCC(C(C)(O)CCC4OC(C)(C)C5CCC4(C)O5)O3)O2)O1 (centres unmarked) [Compound 10, nivariol A]",> 100 µM,102 ± 9.57 µM,–,–
"CC1(C)O[C@](C)([C@H]2CC[C@]3(C)OC(=O)CC[C@H]3O2)CC[C@H]1Br [Compound 11, adejene B]",> 100 µM,48.3 ± 0.55 µM,–,–
"C=C(CC[C@H](OS(=O)(=O)O)[C@@]1(C)CC[C@H](C(C)(C)O)O1)[C@H]1CC[C@H]2O[C@@H]([C@]3(C)CC[C@@H](Br)C(C)(C)O3)CC[C@]2(C)O1 [Compound 12, 18-sulphatedehydrothyrsiferol]",–,43.18 ± 0.14 µM,> 100 µM,–
"C=C(CCC(=O)[C@@]1(C)CC[C@H](C(C)(C)O)O1)[C@H]1CC[C@H]2O[C@@H]([C@]3(C)CC[C@@H](Br)C(C)(C)O3)CC[C@]2(C)O1 [Compound 13, 18-ketodehydrothyrsiferol]",–,29.1 ± 2.84 µM,23.4 ± 1.76 µM,–
"CC(C)(O)[C@H]1CC[C@](C)([C@@H]2CC[C@@](CI)([C@H]3CC[C@H]4O[C@@H]([C@]5(C)CC[C@@H](Br)C(C)(C)O5)CC[C@]4(C)O3)O2)O1 [Compound 14, 28-iodosaiyacenol A]",–,50.5 ± 3.05 µM,29.45 ± 0.2 µM,–
"CC(C)(O)[C@H]1CC[C@](C)([C@@H]2CC[C@](CI)([C@H]3CC[C@H]4O[C@@H]([C@]5(C)CC[C@@H](Br)C(C)(C)O5)CC[C@]4(C)O3)O2)O1 [Compound 15, 28-iodosaiyacenol B]",–,54.3 ± 6.56 µM,> 100 µM,–
"CC(C)(O)[C@H]1CC[C@](C)([C@@H](O)CCC(O)(CO)[C@H]2CC[C@H]3O[C@@H]([C@]4(C)CC[C@@H](Br)C(C)(C)O4)CC[C@]3(C)O2)O1 (some centres unmarked) [Compound 16, 28-hydroxythyrsiferol]",–,104 ± 8.42 µM,> 100 µM,–
"C[C@@H](c1ncncc1F)[C@](O)(Cn1cncn1)c1ccc(F)cc1F [Voriconazole, voriconazole, reference compound]",2.64 ± 0.27 µM,0.94 ± 0.29 µM,–,–
